The results in this text go back to ChEMBL document CHEMBL5291721, “A preclinical secondary pharmacology resource illuminates target-adverse drug reaction associations of marketed drugs” (Nat Commun, 2023).

Test [1] deals with T1, Muscarinic acetylcholine receptor M1 (Homo sapiens, UniProt P11229).
T1 sequence (P11229 whole entry): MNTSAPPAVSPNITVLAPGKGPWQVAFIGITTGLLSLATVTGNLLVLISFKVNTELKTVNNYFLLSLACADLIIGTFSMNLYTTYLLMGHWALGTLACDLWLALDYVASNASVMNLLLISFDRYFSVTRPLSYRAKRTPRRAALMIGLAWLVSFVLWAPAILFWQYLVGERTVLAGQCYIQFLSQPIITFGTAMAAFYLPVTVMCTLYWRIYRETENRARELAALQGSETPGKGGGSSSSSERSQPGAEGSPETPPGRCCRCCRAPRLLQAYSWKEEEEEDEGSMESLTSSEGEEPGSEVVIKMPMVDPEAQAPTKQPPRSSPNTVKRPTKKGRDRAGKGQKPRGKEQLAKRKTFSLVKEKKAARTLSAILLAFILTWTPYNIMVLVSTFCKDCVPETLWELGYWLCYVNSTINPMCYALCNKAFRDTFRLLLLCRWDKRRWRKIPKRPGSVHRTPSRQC
Type of test: functional, cell-based.

Test [2] has as its target Voltage-gated inwardly rectifying potassium channel KCNH2 (Homo sapiens, UniProt Q12809). Type of test: functional. The settings on record: read-out: AC50.
Test [3] addresses T2, Alpha-1A adrenergic receptor (Homo sapiens, UniProt P35348).
T2 sequence (P35348 whole entry): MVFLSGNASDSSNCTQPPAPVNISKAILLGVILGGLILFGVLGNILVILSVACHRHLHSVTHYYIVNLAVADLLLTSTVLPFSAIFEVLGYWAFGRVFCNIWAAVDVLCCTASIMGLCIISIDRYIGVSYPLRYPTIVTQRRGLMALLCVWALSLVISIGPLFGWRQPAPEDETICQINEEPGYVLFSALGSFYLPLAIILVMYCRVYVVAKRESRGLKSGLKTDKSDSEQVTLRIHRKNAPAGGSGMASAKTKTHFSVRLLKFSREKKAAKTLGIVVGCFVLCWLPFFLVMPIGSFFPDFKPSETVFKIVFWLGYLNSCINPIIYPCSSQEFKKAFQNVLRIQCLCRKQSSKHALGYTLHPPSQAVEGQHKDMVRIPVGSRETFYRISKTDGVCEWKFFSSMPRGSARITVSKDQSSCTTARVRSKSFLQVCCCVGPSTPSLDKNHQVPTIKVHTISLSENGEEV
Type of test: functional, cell-based.

A further test addresses D(3) dopamine receptor (Homo sapiens, UniProt P35462).
Test [4] addresses Sodium-dependent dopamine transporter (Homo sapiens, UniProt Q01959).
In a further test the target is Prothrombin (Homo sapiens, UniProt P00734). The class given is functional.
The target in test [5] is T3, Alpha-2A adrenergic receptor (Homo sapiens, UniProt P08913).
T3 sequence (P08913 whole entry): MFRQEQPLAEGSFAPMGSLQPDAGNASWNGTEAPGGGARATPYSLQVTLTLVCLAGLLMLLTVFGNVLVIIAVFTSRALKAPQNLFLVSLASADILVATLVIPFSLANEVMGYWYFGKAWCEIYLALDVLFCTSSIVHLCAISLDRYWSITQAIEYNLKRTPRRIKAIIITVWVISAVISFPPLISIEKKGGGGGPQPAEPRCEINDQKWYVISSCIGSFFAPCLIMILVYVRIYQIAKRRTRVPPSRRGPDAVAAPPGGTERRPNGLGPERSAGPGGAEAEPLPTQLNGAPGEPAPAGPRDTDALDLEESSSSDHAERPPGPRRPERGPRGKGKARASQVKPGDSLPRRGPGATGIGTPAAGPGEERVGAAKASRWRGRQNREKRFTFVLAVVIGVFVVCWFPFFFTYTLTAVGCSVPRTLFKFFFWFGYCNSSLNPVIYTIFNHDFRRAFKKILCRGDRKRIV

Test [6] deals with T4, Muscarinic acetylcholine receptor M2 (Homo sapiens, UniProt P08172).
T4 sequence (P08172 whole entry): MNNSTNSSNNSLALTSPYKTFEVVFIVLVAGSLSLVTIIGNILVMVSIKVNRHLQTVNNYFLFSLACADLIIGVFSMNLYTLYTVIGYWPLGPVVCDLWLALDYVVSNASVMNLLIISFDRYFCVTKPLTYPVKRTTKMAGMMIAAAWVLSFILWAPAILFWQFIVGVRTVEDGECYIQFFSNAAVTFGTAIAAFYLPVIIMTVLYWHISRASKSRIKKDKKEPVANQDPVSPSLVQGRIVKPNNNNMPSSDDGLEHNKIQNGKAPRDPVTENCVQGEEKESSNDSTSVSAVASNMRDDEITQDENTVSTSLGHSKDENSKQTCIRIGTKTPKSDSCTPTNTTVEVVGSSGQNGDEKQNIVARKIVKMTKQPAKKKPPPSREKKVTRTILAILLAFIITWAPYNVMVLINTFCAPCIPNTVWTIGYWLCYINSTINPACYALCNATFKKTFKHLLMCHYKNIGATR

A further test deals with T5, Thromboxane A2 receptor (Homo sapiens, UniProt P21731).
T5 sequence (P21731 whole entry): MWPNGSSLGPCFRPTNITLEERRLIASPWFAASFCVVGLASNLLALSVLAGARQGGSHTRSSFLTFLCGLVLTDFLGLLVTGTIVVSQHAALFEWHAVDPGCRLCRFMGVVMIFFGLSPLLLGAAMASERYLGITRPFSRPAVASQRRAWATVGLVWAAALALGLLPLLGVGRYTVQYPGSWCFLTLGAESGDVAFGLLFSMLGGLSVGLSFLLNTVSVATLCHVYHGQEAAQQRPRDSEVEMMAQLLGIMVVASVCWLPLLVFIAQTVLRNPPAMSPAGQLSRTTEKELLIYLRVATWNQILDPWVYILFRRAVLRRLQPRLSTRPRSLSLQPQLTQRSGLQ
Type of test: functional, cell-based.

The target in test [7] is 3',5'-cyclic-AMP phosphodiesterase 4A (Homo sapiens, UniProt P27815). Type of test: functional.

SMILES strings stand for the structures. Some results are limits rather than exact numbers.
Note: assay procedure not described here.

Chain of Sodium-dependent dopamine transporter (Q01959 whole entry): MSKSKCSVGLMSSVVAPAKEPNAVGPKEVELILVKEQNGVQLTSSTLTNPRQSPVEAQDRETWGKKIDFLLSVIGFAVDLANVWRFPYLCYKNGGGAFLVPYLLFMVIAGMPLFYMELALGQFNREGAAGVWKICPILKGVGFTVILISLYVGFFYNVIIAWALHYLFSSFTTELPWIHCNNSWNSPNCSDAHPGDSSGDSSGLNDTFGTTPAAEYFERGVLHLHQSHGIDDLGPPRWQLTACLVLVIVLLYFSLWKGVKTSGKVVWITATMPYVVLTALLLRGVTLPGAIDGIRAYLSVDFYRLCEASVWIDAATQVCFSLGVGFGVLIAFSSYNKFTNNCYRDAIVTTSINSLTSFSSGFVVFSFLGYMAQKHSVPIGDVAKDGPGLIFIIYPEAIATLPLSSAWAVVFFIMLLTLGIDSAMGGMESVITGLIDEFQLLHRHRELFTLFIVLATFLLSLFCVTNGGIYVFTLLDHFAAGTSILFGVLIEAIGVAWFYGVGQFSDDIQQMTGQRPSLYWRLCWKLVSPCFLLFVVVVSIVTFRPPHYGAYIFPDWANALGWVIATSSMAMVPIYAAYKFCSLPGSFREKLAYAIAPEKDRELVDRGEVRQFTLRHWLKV
Chain of D(3) dopamine receptor (P35462 whole entry): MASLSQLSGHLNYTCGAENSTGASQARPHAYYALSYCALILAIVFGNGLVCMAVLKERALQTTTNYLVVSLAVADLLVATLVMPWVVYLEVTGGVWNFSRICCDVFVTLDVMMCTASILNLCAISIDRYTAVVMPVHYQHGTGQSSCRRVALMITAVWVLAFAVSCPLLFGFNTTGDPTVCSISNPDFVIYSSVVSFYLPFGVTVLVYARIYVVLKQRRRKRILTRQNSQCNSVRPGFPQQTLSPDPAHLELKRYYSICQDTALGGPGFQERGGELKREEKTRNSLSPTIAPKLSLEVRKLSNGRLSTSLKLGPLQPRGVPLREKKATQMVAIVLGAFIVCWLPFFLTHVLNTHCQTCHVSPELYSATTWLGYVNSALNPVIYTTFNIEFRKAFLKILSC
Chain of Voltage-gated inwardly rectifying potassium channel KCNH2 (Q12809 whole entry): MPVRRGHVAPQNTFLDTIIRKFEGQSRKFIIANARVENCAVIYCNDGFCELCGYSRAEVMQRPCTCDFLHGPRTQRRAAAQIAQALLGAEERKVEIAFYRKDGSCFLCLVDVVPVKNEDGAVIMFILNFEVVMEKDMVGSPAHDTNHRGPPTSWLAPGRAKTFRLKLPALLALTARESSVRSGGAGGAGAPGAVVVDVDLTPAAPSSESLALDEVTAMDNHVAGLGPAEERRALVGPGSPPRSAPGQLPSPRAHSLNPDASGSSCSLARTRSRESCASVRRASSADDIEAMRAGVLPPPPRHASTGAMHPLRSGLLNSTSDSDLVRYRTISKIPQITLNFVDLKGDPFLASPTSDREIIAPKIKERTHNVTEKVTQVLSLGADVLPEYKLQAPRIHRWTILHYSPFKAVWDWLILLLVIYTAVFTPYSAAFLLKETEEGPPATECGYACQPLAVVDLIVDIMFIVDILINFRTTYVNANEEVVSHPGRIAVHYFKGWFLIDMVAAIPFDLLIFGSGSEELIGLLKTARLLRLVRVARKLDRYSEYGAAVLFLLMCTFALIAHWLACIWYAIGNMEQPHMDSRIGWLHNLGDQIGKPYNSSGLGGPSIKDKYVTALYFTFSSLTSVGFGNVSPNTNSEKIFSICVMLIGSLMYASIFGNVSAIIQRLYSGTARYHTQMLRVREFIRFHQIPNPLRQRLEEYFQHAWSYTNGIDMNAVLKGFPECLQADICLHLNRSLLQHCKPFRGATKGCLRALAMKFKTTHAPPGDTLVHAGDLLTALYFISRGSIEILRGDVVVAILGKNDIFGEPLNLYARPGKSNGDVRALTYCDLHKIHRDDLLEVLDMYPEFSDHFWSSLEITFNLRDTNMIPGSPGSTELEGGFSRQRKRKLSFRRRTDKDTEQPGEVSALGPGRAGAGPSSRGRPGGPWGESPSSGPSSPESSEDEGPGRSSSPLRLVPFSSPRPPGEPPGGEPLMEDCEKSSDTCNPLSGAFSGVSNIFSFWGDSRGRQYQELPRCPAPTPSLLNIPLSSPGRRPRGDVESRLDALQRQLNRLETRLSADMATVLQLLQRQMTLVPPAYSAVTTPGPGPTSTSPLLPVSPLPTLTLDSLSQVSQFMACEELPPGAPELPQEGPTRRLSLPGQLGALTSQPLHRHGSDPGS
Chain of 3',5'-cyclic-AMP phosphodiesterase 4A (P27815 whole entry): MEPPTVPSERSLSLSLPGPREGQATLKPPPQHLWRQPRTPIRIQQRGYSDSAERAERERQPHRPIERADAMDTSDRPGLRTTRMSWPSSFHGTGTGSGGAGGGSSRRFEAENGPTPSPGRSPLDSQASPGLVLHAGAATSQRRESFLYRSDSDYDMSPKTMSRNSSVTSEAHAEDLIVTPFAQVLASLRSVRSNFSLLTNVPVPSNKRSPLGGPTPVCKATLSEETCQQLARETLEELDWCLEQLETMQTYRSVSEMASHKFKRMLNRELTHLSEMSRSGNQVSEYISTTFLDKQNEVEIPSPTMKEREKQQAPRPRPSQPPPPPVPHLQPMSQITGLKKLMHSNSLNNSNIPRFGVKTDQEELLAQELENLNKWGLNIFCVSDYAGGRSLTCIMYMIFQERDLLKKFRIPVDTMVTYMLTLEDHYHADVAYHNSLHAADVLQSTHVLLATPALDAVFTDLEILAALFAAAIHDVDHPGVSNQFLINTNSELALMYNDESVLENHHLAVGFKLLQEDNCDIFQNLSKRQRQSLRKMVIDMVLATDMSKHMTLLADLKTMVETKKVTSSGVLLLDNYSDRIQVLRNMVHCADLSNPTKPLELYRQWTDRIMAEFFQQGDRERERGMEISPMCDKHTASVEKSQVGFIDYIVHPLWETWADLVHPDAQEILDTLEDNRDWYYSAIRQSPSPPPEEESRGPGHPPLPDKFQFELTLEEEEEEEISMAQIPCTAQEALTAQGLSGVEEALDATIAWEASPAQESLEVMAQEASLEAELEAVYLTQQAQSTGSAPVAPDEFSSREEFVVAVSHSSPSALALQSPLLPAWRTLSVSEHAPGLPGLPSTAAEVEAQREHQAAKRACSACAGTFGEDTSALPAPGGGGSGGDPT

Regarding `CC(=O)OCC1=C(C(=O)O)N2C(=O)[C@@H](NC(=O)[C@H](N)c3ccccc3)[C@H]2SC1` [CEPHALOGLYCIN], the half-maximal activity concentration (AC50) (in test [1]; in test [2]; in [3]; on D(3) dopamine receptor; in [4]; at Prothrombin) was greater than 30 µM each time. Also, the concentration at half-maximal activity (AC50) (in [5]; in test [6]; at Thromboxane A2 receptor; in test [7]) was greater than 30 µM throughout.

In the case of `CC(C)(C)C(=O)C(Oc1ccc(Cl)cc1)n1ccnc1` (stereo not given) [CLIMBAZOLE], the half-maximal activity concentration (AC50) in test [1] is greater than 30 µM; in test [2], greater than 30 µM; in test [3], 25.6 µM; at D(3) dopamine receptor, greater than 30 µM; in test [4], 0.0662 µM; at Prothrombin, greater than 30 µM. In addition, the AC50 (in [5]; in [6]; on Thromboxane A2 receptor; in test [7]) was greater than 30 µM throughout.

In the case of `NC1CCN(c2c(F)cc3c(=O)c(C(=O)O)cn(C4CC4)c3c2Cl)C1` (stereo not given) [CLINAFLOXACIN], the concentration at half-maximal activity (AC50) (in test [1]; in test [2]; in test [3]; on D(3) dopamine receptor; in test [4]; on Prothrombin) was greater than 30 µM in each case. The AC50 in test [5] is greater than 30 µM; in test [6], 5.08 µM; on Thromboxane A2 receptor, greater than 30 µM; in test [7] it was greater than 30 µM.

As for `CC(C)(C)CC(C)(C)c1ccc(O)c(Cc2ccc(Cl)cc2Cl)c1` [CLOFOCTOL], the AC50 is greater than 30 µM in [1]; 11 µM in test [2]; greater than 30 µM in [3]; 1.48 µM on D(3) dopamine receptor; 3.54 µM in [4]; greater than 30 µM at Prothrombin. Also, the concentration at half-maximal activity (AC50) was greater than 30 µM in test [5], greater than 10 µM in [6], greater than 30 µM on Thromboxane A2 receptor and 5.93 µM in test [7].

As to `Clc1ccc(C(OCCN2CCCCC2)c2ccccc2)cc1` (stereo not given) [CLOPERASTINE], the concentration at half-maximal activity (AC50) in test [1] was greater than 30 µM; in test [2] it was 0.2 µM; in test [3], 1.27 µM; on D(3) dopamine receptor it was 1.05 µM; in [4] it was 1.09 µM; on Prothrombin, greater than 30 µM. Besides, the AC50 was 2.72 µM in test [5], 0.331 µM in test [6], greater than 30 µM at Thromboxane A2 receptor and greater than 30 µM in test [7].

`CN1CCN(C2=Nc3ccccc3Sc3ccc(Cl)cc32)CC1` [CLOTHIAPINE]: the half-maximal activity concentration (AC50) in [1] is greater than 10 µM; in [2], 4.1 µM; in test [3], 0.01 µM; on D(3) dopamine receptor, 0.0061 µM; in [4], 3.62 µM; at Prothrombin, greater than 30 µM. Further, the concentration at half-maximal activity (AC50) in [5] is 3.47 µM; in [6], 0.52 µM; on Thromboxane A2 receptor, greater than 10 µM; in test [7], greater than 30 µM.

On to `CCOc1ccc(Cc2cc([C@@H]3O[C@H](CO)[C@@H](O)[C@H](O)[C@H]3O)ccc2Cl)cc1` [DAPAGLIFLOZIN], for which the AC50 (in test [1]; in test [2]; in test [3]; at D(3) dopamine receptor; in test [4]; on Prothrombin) was greater than 30 µM throughout. The half-maximal activity concentration (AC50) (in [5]; in test [6]; at Thromboxane A2 receptor; in [7]) was greater than 30 µM each time.

With `CC(=O)OCC(=O)[C@@]1(O)CC[C@H]2[C@@H]3CCC4=CC(=O)C=C[C@]4(C)[C@@]3(Cl)[C@@H](Cl)C[C@@]21C` [DICHLORISONE ACETATE], the AC50 (in test [1]; in [2]; in test [3]; on D(3) dopamine receptor; in [4]; at Prothrombin) was greater than 30 µM in each case. For the same compound, the AC50 (in [5]; in test [6]; on Thromboxane A2 receptor; in test [7]) was greater than 30 µM in each case.

For `NNc1nnc(NN)c2ccccc12` [DIHYDRALAZINE], the AC50 is greater than 30 µM in [1]; 0.44 µM in test [2]; greater than 30 µM in test [3]; greater than 30 µM at D(3) dopamine receptor; greater than 30 µM in test [4]; greater than 30 µM on Prothrombin. Also, the concentration at half-maximal activity (AC50) (in test [5]; in test [6]; on Thromboxane A2 receptor; in test [7]) was greater than 30 µM in each case.

`CCN(CC)CCOC(=O)C(c1ccccc1)C1CCCCC1` (stereo not given) [DROFENINE]: the AC50 in test [1] was greater than 30 µM; in [2], 4.7 µM; in [3], 9.55 µM; at D(3) dopamine receptor, 0.217 µM; in [4] it was 0.219 µM; on Prothrombin it was greater than 30 µM. Besides, the AC50 was 24.1 µM in [5], 0.0342 µM in [6], greater than 30 µM at Thromboxane A2 receptor and greater than 30 µM in test [7].

Take `CC(=O)Oc1ccc2c(c1)CC[C@@H]1[C@@H]2CC[C@]2(C)[C@@H](O)CC[C@@H]12` [ESTRADIOL ACETATE]: the AC50 is greater than 30 µM in [1]; greater than 30 µM in test [2]; 15 µM in test [3]; greater than 30 µM at D(3) dopamine receptor; 8.09 µM in [4]; greater than 30 µM on Prothrombin. Besides, the half-maximal activity concentration (AC50) (in [5]; in test [6]; on Thromboxane A2 receptor; in test [7]) was greater than 30 µM in each case.

Take `CCOc1ccccc1C(N)=O` [ETHENZAMIDE]: the AC50 (in test [1]; in [2]; in test [3]; on D(3) dopamine receptor; in [4]; on Prothrombin) was greater than 30 µM in each case. In addition, the concentration at half-maximal activity (AC50) (in test [5]; in [6]; at Thromboxane A2 receptor; in test [7]) was greater than 30 µM each time.

As for `CCOC(=O)/C=C1\SC(N2CCCCC2)C(=O)N1C` (stereo not given) [ETOZOLIN], the concentration at half-maximal activity (AC50) (in test [1]; in [2]; in test [3]; at D(3) dopamine receptor; in test [4]; at Prothrombin) was greater than 30 µM each time. In addition, the half-maximal activity concentration (AC50) (in test [5]; in [6]; at Thromboxane A2 receptor; in test [7]) was greater than 30 µM throughout.
